Assay results taken from patent US9096518B2, “Substituted hydroxamic acids and uses thereof” (Millennium Pharmaceuticals, Inc., priority 2009, dated 2015).

The compounds below were run against T1, purified human HDAC6 (Homo sapiens, UniProt Q9UBN7) (assay: HDAC6 Enzyme Assay).
T1 construct: purchased BPS Bioscience 5006
T1 sequence (Q9UBN7 1-1215): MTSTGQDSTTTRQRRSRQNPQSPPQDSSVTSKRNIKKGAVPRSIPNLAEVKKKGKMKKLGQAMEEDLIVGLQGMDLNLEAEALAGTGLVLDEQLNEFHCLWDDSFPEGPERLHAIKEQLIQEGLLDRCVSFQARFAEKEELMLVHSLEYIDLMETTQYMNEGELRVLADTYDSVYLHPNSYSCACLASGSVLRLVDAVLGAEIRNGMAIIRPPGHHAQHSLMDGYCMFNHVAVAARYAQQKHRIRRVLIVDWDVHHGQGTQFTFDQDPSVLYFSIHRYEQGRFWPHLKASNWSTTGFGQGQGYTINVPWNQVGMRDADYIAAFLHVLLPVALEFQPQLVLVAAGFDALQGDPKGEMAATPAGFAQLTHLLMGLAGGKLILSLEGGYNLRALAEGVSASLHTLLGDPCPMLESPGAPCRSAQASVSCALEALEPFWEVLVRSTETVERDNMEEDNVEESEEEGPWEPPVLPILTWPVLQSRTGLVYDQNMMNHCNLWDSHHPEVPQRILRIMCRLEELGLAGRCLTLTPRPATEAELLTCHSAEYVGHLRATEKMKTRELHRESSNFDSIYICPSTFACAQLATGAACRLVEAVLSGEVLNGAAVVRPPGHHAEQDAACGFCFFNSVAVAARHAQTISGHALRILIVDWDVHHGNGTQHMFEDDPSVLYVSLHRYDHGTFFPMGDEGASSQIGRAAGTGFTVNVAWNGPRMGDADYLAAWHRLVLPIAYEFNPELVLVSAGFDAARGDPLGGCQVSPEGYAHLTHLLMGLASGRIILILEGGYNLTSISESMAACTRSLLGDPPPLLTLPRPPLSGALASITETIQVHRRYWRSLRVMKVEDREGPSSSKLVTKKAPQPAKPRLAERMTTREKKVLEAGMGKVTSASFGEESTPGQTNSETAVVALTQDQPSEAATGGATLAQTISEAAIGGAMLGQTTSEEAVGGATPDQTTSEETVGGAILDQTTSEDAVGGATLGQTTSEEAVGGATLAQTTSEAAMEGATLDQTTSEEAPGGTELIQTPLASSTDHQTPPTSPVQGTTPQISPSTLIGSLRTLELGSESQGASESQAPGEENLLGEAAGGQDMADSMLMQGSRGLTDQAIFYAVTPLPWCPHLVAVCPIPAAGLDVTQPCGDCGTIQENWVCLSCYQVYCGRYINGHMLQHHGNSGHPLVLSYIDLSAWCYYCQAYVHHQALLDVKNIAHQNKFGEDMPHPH
Format: biochemical
Method: To measure the inhibition of HDAC6 activity, purified human HDAC6 (BPS Bioscience; Cat. No. 5006) is incubated with substrate Ac-Arg-Gly-Lys(Ac)-AMC peptide (Bachem Biosciences; Cat. No. I-1925) for 1 hour at 30° C. in the presence of test compounds or vehicle DMSO control. The reaction is stopped with the HDAC inhibitor trichostatin A (Sigma; Cat. No. T8552) and the amount of Arg-Gly-Lys-AMC generated is quantitated by digestion with trypsin (Sigma; Cat. No. T1426) and subsequent measurement of the amount of AMC released using a fluorescent plate reader (Pherastar; BMG Technologies) set at Ex 340 nm and Em 460 nm. Concentration response curves are generated by calculating the fluorescence increase in test compound-treated samples relative to DMSO-treated controls, and enzyme inhibition (IC50) values are determined from those curves.
`CC(C)(C)c1ccccc1NC(=O)N1CCc2cc(C(=O)NO)ccc2C1` [Compound 96, N^2-(2-tert-butylphenyl)-N^6-hydroxy-3,4-dihydroisoquinoline-2,6(1H)-dicarboxamide] showed an IC50 of less than 50 nM.
Work on `CC(C)(C)OC(=O)Nc1ccc(-c2cc(C(=O)N3CCc4cc(C(=O)NO)ccc4C3)no2)cc1` [Compound 237, tert-butyl[4-(3-{[6-[(hydroxyamino)carbonyl]-3,4-dihydroisoquinolin-2(1H)-yl]carbonyl}isoxazol-5-yl)phenyl]carbamate] yielded an IC50 of 50 to 100 nM.
With `Cc1c(C(=O)N2CCc3cc(C(=O)NO)ccc3C2)cnn1-c1ccccc1` [Compound 18, N-hydroxy-2-[(5-methyl-1-phenyl-1H-pyrazol-4-yl)carbonyl]-1,2,3,4-tetrahydroisoquinoline-6-carboxamide] the IC50 was 50 to 100 nM.
`Cn1cccc1C(=O)N1CCCc2cc(C(=O)NO)ccc2C1` [Compound 83, N-hydroxy-2-[(1-methyl-1H-pyrrol-2-yl)carbonyl]-2,3,4,5-tetrahydro-1H-2-benzazepine-7-carboxamide] showed an IC50 of 100 to 500 nM.
Work on `O=C(NO)c1ccc2c(c1)CCCN(C(=O)c1ccc(-c3ccccc3)cc1)C2` [Compound 244, 2-(biphenyl-4-ylcarbonyl)-N-hydroxy-2,3,4,5-tetrahydro-1H-2-benzazepine-7-carboxamide] yielded an IC50 of 100 to 500 nM.
With `O=C(NO)c1ccc2c(c1)CCN(C(=O)Cc1ccccc1)C2` [Compound 15, N-hydroxy-2-(phenylacetyl)-1,2,3,4-tetrahydroisoquinoline-6-carboxamide] the IC50 was 50 to 100 nM.
`Cc1ccc(S(=O)(=O)N2CCc3cc(C(=O)NO)ccc3C2)cc1` [Compound 45, N-hydroxy-2-[(4-methylphenyl)sulfonyl]-1,2,3,4-tetrahydroisoquinoline-6-carboxamide] was tested, and the IC50 was 50 to 100 nM.
`O=C(NO)c1ccc2c(c1)CCN(Cc1nc(-c3ccc(Cl)cc3)no1)C2` [Compound 71, 2-{[3-(4-chlorophenyl)-1,2,4-oxadiazol-5-yl]methyl}-N-hydroxy-1,2,3,4-tetrahydroisoquinoline-6-carboxamide] showed an IC50 of 50 to 100 nM.
For `O=C(NO)c1ccc2c(c1)CCN(C(=O)C1CCOC1)C2` (stereo not shown) [Compound 24, N-hydroxy-2-(tetrahydrofuran-3-ylcarbonyl)-1,2,3,4-tetrahydroisoquinoline-6-carboxamide], the IC50 was 100 to 500 nM.
Compound `CC(C)(C)C(=O)N1CCc2cc(C(=O)NO)ccc2C1` [Compound 2, 2-(2,2-dimethylpropanoyl)-N-hydroxy-1,2,3,4-tetrahydroisoquinoline-6-carboxamide] has an IC50 of 50 to 100 nM.
`O=C(NO)c1ccc2c(c1)CCN(C(=O)c1ccc(C(F)(F)F)cc1)CC2` [Compound 87, N-hydroxy-3-[4-(trifluoromethyl)benzoyl]-2,3,4,5-tetrahydro-1H-3-benzazepine-7-carboxamide] was tested, and the IC50 was 100 to 500 nM.
`COc1cccc(CC(=O)N2CCc3cc(C(=O)NO)ccc3C2)c1` [Compound 34, N-hydroxy-2-[(3-methoxyphenyl)acetyl]-1,2,3,4-tetrahydroisoquinoline-6-carboxamide] gave an IC50 of 50 to 100 nM.
Work on `O=C(NO)c1ccc2c(c1)CCN(c1nc(-c3cccc(Cl)c3)cs1)C2` [Compound 77, 2-[4-(3-chlorophenyl)-1,3-thiazol-2-yl]-N-hydroxy-1,2,3,4-tetrahydroisoquinoline-6-carboxamide] yielded an IC50 of less than 50 nM.
Work on `O=C(NO)c1ccc2c(c1)CCN(C(=O)Nc1ccc(-c3ccccc3)s1)C2` [Compound 95, N^6-hydroxy-N^2-(5-phenyl-2-thienyl)-3,4-dihydroisoquinoline-2,6(1H)-dicarboxamide] yielded an IC50 of less than 50 nM.
`O=C(NO)c1ccc2c(c1)CCN(Cc1ccc(-n3cccn3)cc1)C2` [Compound 68, N-hydroxy-2-[4-(1H-pyrazol-1-yl)benzyl]-1,2,3,4-tetrahydroisoquinoline-6-carboxamide] showed an IC50 of 100 to 500 nM.
With `O=C(NO)c1ccc2c(c1)CCN(C(=O)C1CC=CCC1)C2` (stereo not shown) [Compound 26, 2-(cyclohex-3-en-1-ylcarbonyl)-N-hydroxy-1,2,3,4-tetrahydroisoquinoline-6-carboxamide] the IC50 was 100 to 500 nM.
`C=CC(C)C(=O)N1CCc2cc(C(=O)NO)ccc2C1` (stereo not shown) [Compound 19, N-hydroxy-2-(2-methylbut-3-enoyl)-1,2,3,4-tetrahydroisoquinoline-6-carboxamide] showed an IC50 of 50 to 100 nM.
`Cc1noc(C)c1CC(=O)N1CCc2cc(C(=O)NO)ccc2C1` [Compound 16, 2-[(3,5-dimethylisoxazol-4-yl)acetyl]-N-hydroxy-1,2,3,4-tetrahydroisoquinoline-6-carboxamide] gave an IC50 of 50 to 100 nM.
`O=C(NO)c1ccc2c(c1)CCCN(C(=O)c1csc3ccccc13)C2` [Compound 258, 2-(1-benzothien-3-ylcarbonyl)-N-hydroxy-2,3,4,5-tetrahydro-1H-2-benzazepine-7-carboxamide] gave an IC50 of 100 to 500 nM.
`CC(c1ccccc1)N1CCc2cc(C(=O)NO)ccc2C1` (stereo not shown) [Compound 110, N-hydroxy-2-(1-phenylethyl)-1,2,3,4-tetrahydroisoquinoline-6-carboxamide] was tested, and the IC50 was 100 to 500 nM.
`Cc1cc(C)n(CC(=O)N2CCc3cc(C(=O)NO)ccc3C2)n1` [Compound 31, 2-[(3,5-dimethyl-1H-pyrazol-1-yl)acetyl]-N-hydroxy-1,2,3,4-tetrahydroisoquinoline-6-carboxamide] showed an IC50 of 100 to 500 nM.
With `O=C(NO)c1ccc2c(c1)CCCN(C(=O)c1cc3ccccc3s1)C2` [Compound 239, 2-(1-benzothien-2-ylcarbonyl)-N-hydroxy-2,3,4,5-tetrahydro-1H-2-benzazepine-7-carboxamide] the IC50 was less than 50 nM.
`O=C(NO)c1ccc2c(c1)CCN(c1nc(-c3ccc4c(c3)OCCO4)cs1)C2` [Compound 75, 2-[4-(2,3-dihydro-1,4-benzodioxin-6-yl)-1,3-thiazol-2-yl]-N-hydroxy-1,2,3,4-tetrahydroisoquinoline-6-carboxamide] showed an IC50 of less than 50 nM.
For `CC(C)c1ccc(CC(=O)N2CCc3cc(C(=O)NO)ccc3C2)cc1` [Compound 35, N-hydroxy-2-[(4-isopropylphenyl)acetyl]-1,2,3,4-tetrahydroisoquinoline-6-carboxamide], the IC50 was 100 to 500 nM.
`O=C(NO)c1ccc2c(c1)CCN(S(=O)(=O)c1ccc(Oc3ccncc3)cc1)C2` [Compound 55, N-hydroxy-2-{[4-(pyridin-4-yloxy)phenyl]sulfonyl}-1,2,3,4-tetrahydroisoquinoline-6-carboxamide] showed an IC50 of 100 to 500 nM.
For `O=C(NO)c1ccc2c(c1)CCCN(C(=O)C1CCCCC1)C2` [Compound 247, 2-(cyclohexylcarbonyl)-N-hydroxy-2,3,4,5-tetrahydro-1H-2-benzazepine-7-carboxamide], the IC50 was 100 to 500 nM.
Compound `O=C(NO)c1ccc2c(c1)CCCN(C(=O)c1cnc3ccccc3n1)C2` [Compound 243, N-hydroxy-2-(quinoxalin-2-ylcarbonyl)-2,3,4,5-tetrahydro-1H-2-benzazepine-7-carboxamide] has an IC50 of 100 to 500 nM.
Compound `O=C(NO)c1ccc2c(c1)CCN(C(=O)Nc1ccc(OC(F)(F)F)cc1)C2` [Compound 92, N^6-hydroxy-N^2-[4-(trifluoromethoxy)phenyl]-3,4-dihydroisoquinoline-2,6(1H)-dicarboxamide] has an IC50 of less than 50 nM.
For `O=C(NO)c1ccc2c(c1)CCCN(C(=O)c1cc3ccccc3o1)C2` [Compound 250, 2-(1-benzofuran-2-ylcarbonyl)-N-hydroxy-2,3,4,5-tetrahydro-1H-2-benzazepine-7-carboxamide], the IC50 was less than 50 nM.
Compound `O=C(NO)c1ccc2c(c1)CCN(C(=O)C13CC4CC(CC(O)(C4)C1)C3)C2` [Compound 248, N-hydroxy-2-[(3-hydroxy-1-adamantyl)carbonyl]-1,2,3,4-tetrahydroisoquinoline-6-carboxamide] has an IC50 of less than 50 nM.
For `O=C(NO)c1ccc2c(c1)CCCN(C(=O)c1cccs1)C2` [Compound 260, N-hydroxy-2-(2-thienylcarbonyl)-2,3,4,5-tetrahydro-1H-2-benzazepine-7-carboxamide], the IC50 was 100 to 500 nM.
